Calls of active or inactive are those of the source. The calls are words filed in the database; no cut-off is given here.
Key:
[1] = tested on: Respiratory syncytial virus; experiment: Antiviral activity against RSV infected in human HEp-2 cells assessed as decrease in virus induced TRAF3 gene expression measured after 48 hrs by RT-PCR analysis; type: functional, organism-based
[2] = tested on: Respiratory syncytial virus; experiment: Antiviral activity against RSV infected in BALB/c mouse assessed as downregulation of IL-8 expression in lung tissue infected with RSV at 25 to 100 mg/kg/day measured after 2 to 6 days post infection by RT-PCR analysis; type: functional, organism-based; conditions: dose 25-100 mg/kg/day, time 2-6 day
Human orthopneumovirus = experiment: Antiviral activity against Respiratory syncytial virus A2 infected in African green monkey Vero cells assessed as reduction in viral infection incubated for 60 hrs by MTT assay; type: functional, organism-based
[3] = tested on: Respiratory syncytial virus; experiment: Antiviral activity against RSV Long infected in BALB/c mouse assessed as improvement in lung congestion at 25 to 100 mg/kg/day observed on day 6 after infection by H and E staining based microscopic analysis; type: functional, organism-based; conditions: dose 25-100 mg/kg/day, time 6.0 day
[4] = Inhibition of RSV induced ROS production in human HEp-2 cells assessed as reduction in accumulation of ROS-positive cells at 50 uM measured after 36 hrs by DCHF-DA staining based flow cytometry analysis (reference value: 82.2%); type: functional, Respiratory syncytial virus; design: scale not given: the % may be the effect or the level left
[5] = tested on: Respiratory syncytial virus; experiment: Antiviral activity against Respiratory syncytial virus Long infected in African green monkey Vero cells assessed as reduction in viral infection incubated for 60 hrs by MTT assay; type: functional, organism-based; conditions: human respiratory syncytial virus
[6] = tested on: Respiratory syncytial virus; experiment: Antiviral activity against RSV infected in human HEp-2 cells assessed as decrease in virus induced TBK1 gene expression measured after 48 hrs by RT-PCR analysis; type: functional, organism-based
[7] = tested on: Respiratory syncytial virus; experiment: Inhibition of RSV induced apoptosis in human HEp-2 cells assessed as late apoptotic cells at 50 uM measured after 60 hrs by Annexin V-FITC/PI staining based flow cytometry analysis (reference value: 20.2%); type: functional; design: scale not given: the % may be the effect or the level left
[8] = tested on: Respiratory syncytial virus; experiment: Antiviral activity against RSV infected in human HEp-2 cells assessed as decrease in virus induced IFN-beta gene expression measured after 48 hrs by RT-PCR analysis; type: functional, organism-based
[9] = tested on: Respiratory syncytial virus; experiment: Inhibition of RSV induced apoptosis in human HEp-2 cells assessed as reduction in cleaved caspase-7 expression measured after 48 hrs by Western blot analysis; type: functional, organism-based
[10] = tested on: Respiratory syncytial virus; experiment: Antiviral activity against RSV infected in BALB/c mouse assessed as downregulation of iNOS expression in lung tissue infected with RSV at 25 to 100 mg/kg/day measured after 2 to 6 days post infection by RT-PCR analysis; type: functional, organism-based; conditions: dose 25-100 mg/kg/day, time 2-6 day
[11] = tested on: Respiratory syncytial virus; experiment: Inhibition of RSV induced apoptosis in human HEp-2 cells assessed as early apoptotic cells at 50 uM measured after 60 hrs by Annexin V-FITC/PI staining based flow cytometry analysis (reference value: 10.3%); type: functional; design: scale not given: the % may be the effect or the level left
[12] = tested on: Respiratory syncytial virus; experiment: Antiviral activity against RSV Long infected in BALB/c mouse assessed as reversal of virus infection induced weight loss at 25 to 100 mg/kg/day administered via gastric gavage once daily for 6 days; type: functional, organism-based; conditions: dose 25-100 mg/kg/day, time 6.0 day
[13] = tested on: Respiratory syncytial virus; experiment: Antiviral activity against RSV infected in BALB/c mouse assessed as downregulation of RIG-1 expression in lung tissue infected with RSV at 25 to 100 mg/kg/day measured after 2 to 4 days post infection by RT-PCR analysis; type: functional, organism-based; conditions: dose 25-100 mg/kg/day, time 2-4 day
HEp-2 [14] = experiment: Induction of apoptosis in human HEp-2 cells assessed as early apoptotic cells at 25 uM measured after 60 hrs by Annexin V-FITC/PI staining based flow cytometry analysis (reference value: 0.1%); type: functional
[15] = Selectivity index, ratio of CC50 for human HEp-2 cells to EC50 for Respiratory syncytial virus infected in human HEp-2 cells; type: toxicity, cell-based; conditions: read-out: Selectivity Index
[16] = tested on: Respiratory syncytial virus; experiment: Antiviral activity against Respiratory syncytial virus infected in human HEp-2 cells incubated for 60 hrs by MTT assay; type: functional, organism-based; conditions: HEp-2, 60 h
[17] = tested on: Respiratory syncytial virus; experiment: Inhibition of RSV induced apoptosis in human HEp-2 cells assessed as reduction in cleaved caspase-9 expression measured after 48 hrs by Western blot analysis; type: functional, organism-based
[18] = tested on: Respiratory syncytial virus; experiment: Antiviral activity against RSV infected in BALB/c mouse assessed as downregulation of IL-10 expression in lung tissue infected with RSV at 25 to 100 mg/kg/day measured after 2 to 6 days post infection by RT-PCR analysis; type: functional, organism-based; conditions: dose 25-100 mg/kg/day, time 2-6 day
[19] = Inhibition of RSV induced ROS production in human HEp-2 cells assessed as reduction in accumulation of ROS-positive cells at 25 uM measured after 36 hrs by DCHF-DA staining based flow cytometry analysis (reference value: 82.2%); type: functional, Respiratory syncytial virus; design: scale not given: the % may be the effect or the level left
[20] = tested on: Respiratory syncytial virus; experiment: Inhibition of RSV induced apoptosis in human HEp-2 cells assessed as reduction in PARP cleavage measured after 48 hrs by Western blot analysis; type: functional, organism-based
[21] = tested on: Respiratory syncytial virus; experiment: Inhibition of RSV induced apoptosis in human HEp-2 cells assessed as late apoptotic cells at 25 uM measured after 60 hrs by Annexin V-FITC/PI staining based flow cytometry analysis (reference value: 20.2%); type: functional; design: scale not given: the % may be the effect or the level left
[22] = tested on: Respiratory syncytial virus; experiment: Antiviral activity against RSV Long infected in BALB/c mouse assessed as reduction in lung tissue damage by measuring lung index at 25 to 100 mg/kg/day measured after 4 to 6 days of virus infection; type: functional, organism-based; conditions: dose 25-100 mg/kg/day, time 4-6 day
[23] = tested on: Respiratory syncytial virus; experiment: Antiviral activity against RSV infected in BALB/c mouse assessed as downregulation of IL-6 expression in lung tissue infected with RSV at 25 to 100 mg/kg/day measured after 2 days post infection by RT-PCR analysis; type: functional, organism-based; conditions: dose 25-100 mg/kg/day, time 2.0 day
[24] = tested on: Respiratory syncytial virus; experiment: Antiviral activity against RSV infected in human HEp-2 cells assessed as decrease in virus induced NF-kappaB gene expression measured after 48 hrs by RT-PCR analysis; type: functional, organism-based
[25] = tested on: Respiratory syncytial virus; experiment: Antiviral activity against RSV infected in human HEp-2 cells assessed as decrease in virus induced IL-6 gene expression measured after 48 hrs by RT-PCR analysis; type: functional, organism-based
[26] = tested on: Respiratory syncytial virus; experiment: Antiviral activity against Respiratory syncytial virus infected in human HEp-2 cells assessed as reduction in RSV-F gene expression at 25 uM measured after 24 to 60 hpi by RT-PCR analysis; type: functional, organism-based; conditions: time 24-60 hrs
[27] = tested on: Respiratory syncytial virus; experiment: Antiviral activity against RSV infected in BALB/c mouse assessed as downregulation of TNF-alpha expression in lung tissue infected with RSV at 25 to 100 mg/kg/day measured after 2 to 6 days post infection by RT-PCR analysis; type: functional, organism-based; conditions: dose 25-100 mg/kg/day, time 2-6 day
[28] = tested on: Respiratory syncytial virus; experiment: Antiviral activity against Respiratory syncytial virus Long infected in human HEp-2 cells assessed as reduction in viral infection up to 50 uM treated 2 hpi measured after 60 hrs by MTT assay; type: functional, organism-based; conditions: dose microM <=50, time 60.0 hrs
HEp-2 [29] = experiment: Induction of ROS production in human HEp-2 cells assessed as accumulation of ROS-positive cells at 25 uM measured after 36 hrs by DCHF-DA staining based flow cytometry analysis (reference value: 48.2%); type: functional
[30] = tested on: Respiratory syncytial virus; experiment: Antiviral activity against Respiratory syncytial virus Long infected in human HEp-2 cells assessed as reduction in viral infection incubated for 60 hrs by MTT assay; type: functional, organism-based; conditions: HEp-2, 60 h
[31] = tested on: Respiratory syncytial virus; experiment: Antiviral activity against Respiratory syncytial virus infected in human HEp-2 cells assessed as inhibition of virus infected cells induced lesion formation at 25 uM measured after 60 hrs by microscopic analysis; type: functional, organism-based

Cc1c(Br)cc2nc3n(c2c1Br)[C@H]1OC[C@@H](O)[C@H]1OC3
Activity [1]: Dose-Dependent Effect | Activity [2]: Active | EC50 (Human orthopneumovirus): 15.5 µM | Activity [3]: Active | Activity [4]: 56.3% | EC50 [5]: 19 µM | Activity [6]: Dose-Dependent Effect | Activity [7]: 2.2% | Activity [8]: Dose-Dependent Effect | inhibition [9]: Active | Activity [10]: Active | Activity [11]: 3.9% | Activity [12]: Active | Activity [13]: Active | Activity (HEp-2 [14]): 0.4% | selectivity ratio [15]: 26.4 | EC50 [16]: 9.49 µM | inhibition [17]: Active | Activity [18]: Active | Activity [19]: 60.7% | inhibition [20]: Active | Activity [21]: 1.8% | Activity [22]: Active | Activity [23]: Active | Activity [24]: Dose-Dependent Effect | Activity [25]: Dose-Dependent Effect | Activity [26]: Active | Activity [27]: Active | Activity [28]: Active | Activity (HEp-2 [29]): 53.1% | EC50 [30]: 9.49 µM | Activity [31]: Active
